Source: patent publication US20020032236A1, “Method for the treatment of dermatological diseases by using nimesulide” (priority 2000, published 2002)

System: pustular psoriasis, gangrenous pyoderma, capillitium erosive dermatitis and Dick & Syme syndrome
Details: 200 mg/day for 3 weeks, followed by 100 mg/day for three weeks
Description: Double blind clinical studies were carried out on patients suffering from pustular psoriasis, gangrenous pyoderma, capillitium erosive dermatitis and Dick & Syme syndrome. Patients were treated with Nimesulide, at a dosage of 200 mg/day for 3 weeks, followed by 100 mg/day for three weeks.
At the end of the treatment, the following parameters were evaluated: number of the skin lesions extent of the skin lesions relief from pain at the nodule sites

[1] = patients, at the end of the treatment

SMILES: CS(=O)(=O)Nc1ccc([N+](=O)[O-])cc1Oc1ccccc1 [Nimesulide]
- remission of the "disease" (in some cases): complete remission
- side effects (patients): no side effects were observed
- effectiveness in the treatment of the "diseases" [1]: statistically effective
- extent of the skin lesions [1]: regression of the skin lesions
- number of the skin lesions [1]: regression of the skin lesions
- relief from pain at the nodule sites [1]: almost complete disappearance of pain
